Data from patent US11278555B2, “Combinational therapies for treatment of cancer comprising a bacteriochlorophyll derivative” (Yeda Research and Development Co. Ltd., priority 2016, dated 2022).

How the values were obtained:
MB49 tumors = test: WST11 VTP, Gemzar and combination in immune compromised Rag1 KO versus WT mice bearing MB49 tumors; format: in vivo; conditions: Kaplan-Meier
Procedure: (§1) • (i) Bacteriochlorophyll Derivatives—The Bchl derivatives and RGD-conjugates thereof were provided by Steba Biotech (Rehovot, Israel). […] Concentration was verified by spectrophotometric measurement. STL-7012 was provided as dipotassium salt. Working solution was prepared by dissolving STL-7012 K^+ salt in 5% mannitol solution (1 mg/ml). […] WST11 was supplied as a powder and kept in the dark at −20° C. Stock was prepared by dissolving WST11 in DDW containing 5% glucose and 0.67% mannitol, aliquoted and lyophilized. Working solution was reconstituted with DDW and the concentration of solution was confirmed spectrophotometrically. Alternatively, Clinical WST11 (batch: P00611, and 10-130611) was supplied as lyophilized formulation. Material was dissolved in 5% dextrose, aliquoted and stored at −20° C. […] Whole body imaging of luciferase-transfected tumors and metastases were recorded five minutes following 75 mg Kg^−1 intraperitoneal (i.p.) injection of D-luciferin with respective filter sets. • (vi) PDT treatment protocol: 4T1-Luc cells were grafted in the mammary pad of Balb/c mice. […]

[1] = tested on: 4T1-luc tumors at the mammary pad; test: WST11 VTP combined with CTX or Gemzar in mice bearing 4T1-luc tumors in the mammary pad (Scheme 5); format: in vivo, Balb/C mice; conditions: VTP alone, 9 mg/kg WST11, 200 mW/cm^2 for 15 min
Procedure: as §1

CCC1c2cc3[n-]c(c(CC(=O)OC)c4nc(cc5[n-]c(cc(n2)C1C)c(C(C)=O)c5C)C(C)C4CCC(=O)[O-])c(C(=O)NCCS(=O)(=O)[O-])c3C.[K+].[K+].[Pd+2] (centres unmarked) [WST11, Palladium 3^1-oxo-15-methoxycarbonylmethyl-rhodobacteriochlorin 13^1-(2-sulfoethyl) amide dipotassium salt]
overall survival of immune compromised (Rag1 KO) mice compared with WT mice (MB49 tumors): statistically significant decrease
survival [1]: very limited survival
